Measurements taken from patent US10590129B2 (Incozen Therapeutics Pvt. Ltd., priority 2010, dated 2020).

Tests used:
MKN-45 cells = test: Inhibition of MKN-45 proliferation (MTT); assay type: cell-based, human; details: Homo sapiens, MKN-45, MKN-45 proliferation
In short: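 Viability measured by MTT dye reduction on day 5 after compound addition on day 2 to MKN-45 gastric adenocarcinoma cells (high Met expression) seeded on day 1 in complete medium.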

melting point [°C] | GI50 (MKN-45 cells) [µM] | SMILES | inhibition at 0.1 µM (MKN-45 cells) [%] | inhibition at 1 µM (MKN-45 cells) [%]
201 to 202 | – | CON(C)C(=O)c1ccc(-c2ccc3nnn(Cc4ccc5ncccc5c4)c3n2)cc1F.Cl [Ex 59, 2-Fluoro-N-methoxy-N-methyl-4-(3-(quinolin-6-ylmethyl)-3H-[1,2,3]triazolo[4,5-b]pyridin-5-yl)benzamide hydrochloride] | < 25 | 50 to 75
171 to 173 | – | CNC(=O)c1ccc(-c2ccc3nnn(C(C)(C)c4ccc5ncccc5c4)c3n2)cc1F [Ex 103, 2-Fluoro-N-methyl-4-(3-(2-(quinolin-6-yl)propan-2-yl)-3H-[1,2,3]triazolo[4,5-b]pyridin-5-yl)benzamide] | < 25 | –
180 to 182 | – | O=C(NO)c1ccc(-c2ccc3nnn(Cc4ccc5ncccc5c4)c3n2)cc1F [Ex 115, 2-Fluoro-N-hydroxy-4-(3-(quinolin-6-ylmethyl)-3H-[1,2,3]triazolo[4,5-b]pyridin-5-yl)benzamide] | < 25 | 75 to 100
211 to 213 | – | O=C(O)c1ccc(-c2ccc3nnn(Cc4c(F)ccc(F)c4Cl)c3n2)cc1F [Ex 18, 4-(3-(2-Chloro-3,6-difluorobenzyl)-3H-[1,2,3]triazolo[4,5-b]pyridin-5-yl)-2-fluorobenzoic acid] | – | < 25
151 to 153 | – | O=C(NCCC(=O)N1CCCC1)c1ccc(-c2ccc3nnn(Cc4ccc5ncccc5c4)c3n2)cc1F [Ex 114, 2-Fluoro-N-(3-oxo-3-(pyrrolidin-1-yl)propyl)-4-(3-(quinolin-6-ylmethyl)-3H-[1,2,3]triazolo[4,5-b]pyridin-5-yl)benzamide] | 50 to 75 | 50 to 75
128 to 130 | – | CC(C)Oc1ccc(-c2ccc3nnn(Cc4ccc5ncccc5c4)c3n2)cc1F [Ex 75, 6-((5-(3-Fluoro-4-isopropoxyphenyl)-3H-[1,2,3]triazolo[4,5-b]pyridin-3-yl)methyl)quinoline] | < 25 | < 25
204 to 206 | – | O=C(Nc1nccs1)c1ccc(-c2ccc3nnn(Cc4ccc5ncccc5c4)c3n2)cc1F [Ex 111, 2-Fluoro-4-(3-(quinolin-6-ylmethyl)-3H-[1,2,3]triazolo[4,5-b]pyridin-5-yl)-N-(thiazol-2-yl)benzamide] | < 25 | 75 to 100
175 to 177 | – | O=C(NCC(=O)N1CCCC1)c1ccc(-c2ccc3nnn(Cc4ccc5ncccc5c4)c3n2)cc1F [Ex 78, 2-Fluoro-N-(2-oxo-2-(pyrrolidin-1-yl)ethyl)-4-(3-(quinolin-6-ylmethyl)-3H-[1,2,3]triazolo[4,5-b]pyridin-5-yl)benzamide] | 50 to 75 | 50 to 75
132 to 135 | – | CCNC(=O)c1ccc(-c2ccc3nnn(C(C)(C)c4ccc5ncccc5c4)c3n2)cc1F [Ex 107, N-Ethyl-2-fluoro-4-(3-(2-(quinolin-6-yl)propan-2-yl)-3H-[1,2,3]triazolo[4,5-b]pyridin-5-yl)benzamide] | < 25 | –
109 to 111 | – | O=C(NCCC(=O)N1CCCCC1)c1ccc(-c2ccc3nnn(Cc4ccc5ncccc5c4)c3n2)cc1F [Ex 117, 2-Fluoro-N-(3-oxo-3-(piperidin-1-yl)propyl)-4-(3-(quinolin-6-ylmethyl)-3H-[1,2,3]triazolo[4,5-b]pyridin-5-yl)benzamide] | 50 to 75 | 75 to 100
286 to 288 | – | O=C(Nc1nc[nH]n1)c1ccc(-c2ccc3nnn(Cc4ccc5ncccc5c4)c3n2)cc1Cl [Ex 122, 2-chloro-4-(3-(quinolin-6-ylmethyl)-3H-[1,2,3]triazolo[4,5-b]pyridin-5-yl)-N-(1H-1,2,4-triazol-3-yl)benzamide] | < 25 | < 25
168 to 170 | ≤ 0.05 | FCCn1cc(-c2ccc3nnn(Cc4ccc5ncccc5c4)c3n2)cn1 [Ex 187, 6-((5-(1-(2-fluoroethyl)-1H-pyrazol-4-yl)-3H-[1,2,3]triazolo[4,5-b]pyridin-3-yl)methyl)quinoline] | 75 to 100 | –
160 to 163 | – | OCCn1cc(-c2ccc3ncn(Cc4ccc5ncccc5c4)c3n2)cn1 [Ex 150, 2-(4-(3-(Quinolin-6-ylmethyl)-3H-imidazo[4,5-b]pyridin-5-yl)-1H-pyrazol-1-yl)ethanol] | – | < 25
187 to 189 | – | Nc1cccc(-c2ccc3nnn(Cc4ccc5ncccc5c4)c3n2)c1 [Ex 71, 3-(3-(quinolin-6-ylmethyl)-3H-[1,2,3]triazolo[4,5-b]pyridin-5-yl)aniline] | < 25 | 25 to 50
133 to 135 | – | c1cnc2ccc(Cn3nnc4ccc(-c5ccc(N6CCCCC6)nc5)nc43)cc2c1 [Ex 196, 6-((5-(6-(Piperidin-1-yl)pyridin-3-yl)-3H-[1,2,3]triazolo[4,5-b]pyridin-3-yl)methyl)quinoline] | < 25 | < 25
131 to 133 | – | c1cnc2ccc(Cn3nnc4ccc(-c5ccc6c(c5)CCO6)nc43)cc2c1 [Ex 185, 6-((5-(2,3-Dihydrobenzofuran-5-yl)-3H-[1,2,3]triazolo[4,5-b]pyridin-3-yl)methyl) quinoline] | < 25 | < 25
124 to 126 | – | CN(C)c1cccc(-c2ccc3nnn(Cc4ccc5ncccc5c4)c3n2)c1 [Ex 96, N,N-Dimethyl-3-(3-(quinolin-6-ylmethyl)-3H-[1,2,3]triazolo[4,5-b]pyridin-5-yl)aniline] | < 25 | < 25
126 to 128 | – | CC(C)n1cc(-c2ccc3nnn(Cc4ccc5ncccc5c4)c3n2)cn1 [Ex 198, 6-((5-(1-Isopropyl-1H-pyrazol-4-yl)-3H-[1,2,3]triazolo[4,5-b]pyridin-3-yl)methyl)quinoline] | < 25 | –
154 to 156 | – | CC(C)NS(=O)(=O)c1ccc(-c2ccc3nnn(Cc4ccc5ncccc5c4)c3n2)cc1 [Ex 95, N-Isopropyl-4-(3-(quinolin-6-ylmethyl)-3H-[1,2,3]triazolo[4,5-b]pyridin-5-yl)benzenesulfonamide] | < 25 | 50 to 75
177 to 179 | – | CC(C)NC(=O)c1ccc(-c2ccc3nnn(Cc4ccc5ncccc5c4)c3n2)cc1F [Ex 99, 2-Fluoro-N-isopropyl-4-(3-(quinolin-6-ylmethyl)-3H-[1,2,3]triazolo[4,5-b]pyridin-5-yl)benzamide] | 50 to 75 | 50 to 75
171 to 174 | – | O=C(NC1CCC1)c1ccc(-c2ccc3nnn(Cc4ccc5ncccc5c4)c3n2)cc1F [Ex 104, N-Cyclobutyl-2-fluoro-4-(3-(quinolin-6-ylmethyl)-3H-[1,2,3]triazolo[4,5-b]pyridin-5-yl)benzamide] | 50 to 75 | 75 to 100
102 to 105 | – | CN(C)CCCOc1ccc(-c2ccc3nnn(Cc4ccc5ncccc5c4)c3n2)cc1F [Ex 81, 3-(2-Fluoro-4-(3-(quinolin-6-ylmethyl)-3H-[1,2,3]triazolo[4,5-b]pyridin-5-yl)phenoxy)-N,N-dimethylpropan-1-amine] | 50 to 75 | 75 to 100
150 to 152 | – | Cn1cc(-c2ccc3ncn(Cc4ccc5ncccc5c4)c3n2)cn1 [Ex 148, 6-((5-(1-Methyl-1H-pyrazol-4-yl)-3H-imidazo[4,5-b]pyridin-3-yl)methyl)quinoline] | – | < 25
149 to 152 | – | COc1ccc(-c2ccc3nnn(Cc4ccc5ncccc5c4)c3n2)cc1OC [Ex 65, 6-((5-(3,4-Dimethoxyphenyl)-3H-[1,2,3]triazolo[4,5-b]pyridin-3-yl)methyl)quinoline] | < 25 | < 25
179 to 181 | – | c1cnc2ccc(Cn3nnc4ccc(-c5ccc6c(c5)OCO6)nc43)cc2c1 [Ex 184, 6-((5-(Benzo[d][1,3]dioxol-5-yl)-3H-[1,2,3]triazolo[4,5-b]pyridin-3-yl)methyl)quinoline] | < 25 | < 25
85 to 87 | – | Cl.Fc1ccc(F)c(Cn2nnc3ccc(-c4cnn(C5CCNCC5)c4)nc32)c1Cl [Ex 167, 3-(2-Chloro-3,6-difluorobenzyl)-5-(1-(piperidin-4-yl)-1H-pyrazol-4-yl)-3H-[1,2,3]triazolo[4,5-b]pyridine hydrochloride] | – | 25 to 50
165 to 167 | – | Fc1cc(-c2ccc3nnn(Cc4ccc5ncccc5c4)c3n2)ccc1OC1CCOCC1 [Ex 85, 6-((5-(3-Fluoro-4-(tetrahydro-2H-pyran-4-yloxy)phenyl)-3H-[1,2,3]triazolo[4,5-b]pyridin-3-yl)methyl)quinoline] | < 25 | 75 to 100
211 to 213 | – | CCc1n[nH]c2cc(-c3ccc4nnn(Cc5ccc6ncccc6c5)c4n3)ccc12 [Ex 191, 6-((5-(3-ethyl-1H-indazol-6-yl)-3H-[1,2,3]triazolo[4,5-b]pyridin-3-yl)methyl)quinoline] | 25 to 50 | 25 to 50
132 to 134 | – | CCn1cc(-c2ccc3nnn(Cc4ccc5ncccc5c4)c3n2)cn1 [Ex 197, 6-((5-(1-Ethyl-1H-pyrazol-4-yl)-3H-[1,2,3]triazolo[4,5-b]pyridin-3-yl)methyl)quinoline] | 25 to 50 | –

SMILES | melting point [°C] | GI50 (MKN-45 cells) [µM] | inhibition at 0.1 µM (MKN-45 cells) [%] | inhibition at 1 µM (MKN-45 cells) [%]
CC(C)COc1ccc(-c2ccc3nnn(Cc4ccc5ncccc5c4)c3n2)cc1F [Ex 80, 6-((5-(3-Fluoro-4-isobutoxyphenyl)-3H-[1,2,3]triazolo[4,5-b]pyridin-3-yl)methyl)quinoline] | 115 to 157 | – | < 25 | 25 to 50
